Data published in US20250059604A1, “BIOMARKERS AND METHODS RELATED TO FRAGILE X SYNDROME” (University of Massachusetts, priority 2021, published 2025).
“And” between values parts separate entries of the source, which are not always exact repeats. Equal values may be shown once. Read-outs that look alike come from different tables or passages of the source.

How the values were obtained:
[1] = tested on: FMR1 transcripts (total, FMR1-205, FMR1-217) in FXS-NSC; settings: FXS iPSC-derived NSCs, re-analyzed from RNA-seq data of Vershkov et al., cited from earlier work
[2] = tested on: FMR1 RNA (full-length FMR1 and FMR1-217) in FXS1 and FXS2 LCLs; assay: 5-AzadC treatment of FXS lymphoblast cell lines, RT-qPCR of full-length FMR1 and FMR1-217 RNA relative to GAPDH; type: cell-based, human; settings: 1 μM, seven days, RT-qPCR normalized to GAPDH
Description: One μg of total RNA was primed with oligo(dT)20 to generate cDNA with a QuantiTect cDNA synthesis kit (Qiagen, #205311) using random hexamers. qPCR was performed using the iTaq™ Universal SYBR® Green Supermix (BIO-RAD #1725122) on a QuantStudio 3 qPCR machine in duplicate.
Lymphoblast cell lines (LCL) were obtained from Coriell Institute from two FXS individuals (GM07365 (FXS1), GM06897 (FXS2)) and two typically developing control males (GM07174 (WT3), GM06890 (WT4)). Cells were cultured in RPMI 1640 medium (Sigma-Aldrich), supplemented with 15% fetal bovine serum (FBS) and 2.5% L-glutamine at 37° C. with 5% CO2 in T25 flasks.
For each cell culture, 30×10^5 cells/ml were added to a final volume of 20 ml media (RPMI1640 medium (Sigma-Aldrich) supplemented with 15% fetal bovine serum (FBS) and 2.5% L-glutamine at 37° C. with 5% C02) per T25 flask. 5-Aza-2′-deoxycytidine (5-AzadC) (Sigma-Aldrich, A3656) was added to the cell cultures (final concentration 1 μM) for 7 consecutive days. A 2 mM stock of 5-AzadC was made in DMSO. For each cell line, two independent treatments were performed (n=2). For the no treatment controls for each cell line, DMSO was added to the flasks. For samples with both 5-AzadC and ASO treatment, 80 nM or 160 nM ASOs or vehicle were added on Day 1 and either 5-AzadC or DMSO was added each day from Day 2 up to Day 9 at a final concentration of 1 μM. On Day 9 the cells were collected in 1× phosphate buffered saline to proceed with RNA extraction or Western blotting.
DNA methylation of the CpG island upstream of the FMR1 gene promoter in FXS individuals (MFM, Methylated full mutation) contributes to transcriptional silencing of the locus and loss of FMRP. FMR1 transcription can be reactivated by treatment with the nucleoside analogue 5-AzadC (5-aza-2′-deoxycytidine), which inhibits DNA methylation (Tabolacci et al., 2016b, 2016a). […] Next, FXS1 and FXS2 cell lines were treated with the 5-AzadC and then measured FMR1 RNA and FMRP levels. […]

FMRP = assay: 5-AzadC treatment of FXS lymphoblast cell lines, western blot of FMRP relative to GAPDH; type: cell-based, human; settings: FXS1 and FXS2 LCLs, 5-AzadC vs DMSO
Description: For each cell culture, 30×10^5 cells/ml were added to a final volume of 20 ml media (RPMI1640 medium (Sigma-Aldrich) supplemented with 15% fetal bovine serum (FBS) and 2.5% L-glutamine at 37° C. with 5% C02) per T25 flask. 5-Aza-2′-deoxycytidine (5-AzadC) (Sigma-Aldrich, A3656) was added to the cell cultures (final concentration 1 μM) for 7 consecutive days. A 2 mM stock of 5-AzadC was made in DMSO. For each cell line, two independent treatments were performed (n=2). For the no treatment controls for each cell line, DMSO was added to the flasks. […]
Cells were homogenized at 4° C. in RIPA buffer, with incubation on ice for 10 minutes and dissociation by pipetting. […] Protein concentration was determined using BCA reagent. Proteins ([…]) were diluted in SDS-bromophenol blue reducing buffer with 40 mM DTT and analyzed using western blotting with the following antibodies: FMRP (Millipore, mAb2160, 1:1,000), FMRP (Abcam, ab17722, 1:1,000) and GAPDH (14C10, Cell Signaling Technology, mAb 2118, 1:2,000), diluted in 1× TBST with 5% non-fat milk. […]
DNA methylation of the CpG island upstream of the FMR1 gene promoter in FXS individuals (MFM, Methylated full mutation) contributes to transcriptional silencing of the locus and loss of FMRP. […] Next, FXS1 and FXS2 cell lines were treated with the 5-AzadC and then measured FMR1 RNA and FMRP levels. […]

[3] = FXS1 LCL (GM07365, fully methylated)

SMILES: Nc1ncn([C@H]2C[C@H](O)[C@@H](CO)O2)c(=O)n1 [5-AzadC, 5-Aza-2′-deoxycytidine]
- FMR1 (Total) reads ([1]; biologic duplicates): 9.9 TPM and 6.1 TPM
- FMR1-217 reads ([1]; biologic duplicates): 6.9 TPM and 3.9 TPM
- FMR1-217 expression (RNA-seq reads), in words [1]: strong FMR1-217 expression was observed only in the 5-AzadC-treated cells
- total FMR1 and FMR1-205 expression (RNA-seq reads), in words [1]: strong total FMR1 and FMR1-205 expression
- FMR1-217 expression (RNA-seq reads), in words ([1]; listed as 5-azadC): FMR1-217 reads are detected only in the 5-azadC-treated samples
- FMR1-217 RNA relative to DMSO-treated cells [2, 3]: significant increases
- full-length FMR1 RNA relative to DMSO-treated cells [2, 3]: significant increases
- full-length FMR1 and FMR1-217 RNA relative to DMSO-treated cells ([2]; FXS2 LCL (GM06897, partially methylated)): increase of only full-length FMR1 RNA
- FMRP level (FMRP/GAPDH, western blot) (FMRP): In neither cell line did 5-AzadC treatment induce an increase in FMRP
